Measurements reported in publication PMC4855831, “Cloning, expression and characterization of a β-D-xylosidase from Lactobacillus rossiae DSM 15814^T” (Microbial Cell Factories, 2016).

Biological target: T1, XylA (β-D-xylosidase, LROS_1108) (Furfurilactobacillus rossiae, UniProt A0A0R1REJ8)
T1 construct: gene FD35_GL000933; host Lactococcus lactis subsp. cremoris NZ9000; crude cell extract; from primers N-terminus MKIQNPVL, C-terminus KELPETK; EC 3.2.1.37
Assay: p-nitrophenol release at […] nm, XylA-containing crude cell extract
Assay type: biochemical
Details: 5 mM pNPX, 50 mM phosphate buffer pH 5.7, 37.5 °C, 10 min

T1 sequence (A0A0R1REJ8 entry or part of it): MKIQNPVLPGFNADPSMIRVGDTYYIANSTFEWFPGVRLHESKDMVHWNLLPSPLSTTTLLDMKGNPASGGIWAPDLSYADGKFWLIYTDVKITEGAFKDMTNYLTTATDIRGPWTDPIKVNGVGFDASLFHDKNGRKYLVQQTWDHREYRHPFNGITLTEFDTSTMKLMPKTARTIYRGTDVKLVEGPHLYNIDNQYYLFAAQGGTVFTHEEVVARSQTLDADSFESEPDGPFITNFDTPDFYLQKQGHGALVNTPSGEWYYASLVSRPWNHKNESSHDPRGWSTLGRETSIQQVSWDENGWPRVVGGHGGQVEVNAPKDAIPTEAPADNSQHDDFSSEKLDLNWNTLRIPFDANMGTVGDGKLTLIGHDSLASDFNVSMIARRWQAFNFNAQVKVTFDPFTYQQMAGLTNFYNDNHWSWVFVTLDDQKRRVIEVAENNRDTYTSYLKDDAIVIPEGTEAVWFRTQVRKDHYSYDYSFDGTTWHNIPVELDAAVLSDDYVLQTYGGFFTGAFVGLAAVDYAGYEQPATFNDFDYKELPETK

In the case of `O=[N+]([O-])c1ccc(O[C@@H]2OC[C@@H](O)[C@H](O)[C@H]2O)cc1` [p-nitrophenyl-β-D-xylopyranoside], the “p-nitrophenol release at 410 nm, XylA-containing crude cell extract” value is reported as “amount of p-nitrophenol (pNP) released from p-nitrophenyl-β-D-xylopyranoside (pNPX) substrate”.
